From the supplement of paper PMC10307832

Tests used:
Experiment in all cases: relative viability (nuclei count vs DMSO), 5 days (fraction); higher = more cells survive
[1] = compound: COc1cc2nc(N3CCCN(C)CC3)nc(NC3CCN(Cc4ccccc4)CC3)c2cc1OC + CS(=O)(=O)CCNCc1ccc(-c2ccc3ncnc(Nc4ccc(OCc5cccc(F)c5)c(Cl)c4)c3c2)o1 [Lapatinib] (partner 2 µM)
In short: (§1)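 Relative viability equals treated-well nuclei counts divided by vehicle-well nuclei counts. Counts came from 4× images of lung cancer cell lines grown in 1536-well plates for 5 days after pin-tool dosing on the day after seeding. Dosing used one drug alone or a fixed anchor-drug dose plus five library-drug doses (not always all listed) in √10 steps, and values are medians of duplicate plates.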

AZD6482 + Tozasertib = compound: Cc1cc([C@@H](C)Nc2ccccc2C(=O)O)c2nc(N3CCOCC3)cc(=O)n2c1 [AZD6482] + Cc1cc(Nc2cc(N3CCN(C)CC3)nc(Sc3ccc(NC(=O)C4CC4)cc3)n2)n[nH]1 [Tozasertib] (partner 0.1 µM)
In short: as §1

AZD6482 + Olaparib = compound: Cc1cc([C@@H](C)Nc2ccccc2C(=O)O)c2nc(N3CCOCC3)cc(=O)n2c1 [AZD6482] + O=C(c1cc(Cc2n[nH]c(=O)c3ccccc23)ccc1F)N1CCN(C(=O)C2CC2)CC1 [Olaparib] (partner 8 µM)
In short: as §1

AZD6482 + Alpelisib = compound: Cc1cc([C@@H](C)Nc2ccccc2C(=O)O)c2nc(N3CCOCC3)cc(=O)n2c1 [AZD6482] + Cc1nc(NC(=O)N2CCC[C@H]2C(N)=O)sc1-c1ccnc(C(C)(C)C(F)(F)F)c1 [Alpelisib] (partner 2 µM)
In short: as §1

| Cell Line | relative viability ([1]; first compound 0.2 µM) | relative viability ([1]; first compound 0.6325 µM) | relative viability ([1]; first compound 2 µM) | relative viability ([1]; first compound 6.325 µM) | relative viability (AZD6482 + Tozasertib; first compound 0.08 µM) | relative viability (AZD6482 + Tozasertib; first compound 0.253 µM) | relative viability (AZD6482 + Tozasertib; first compound 0.8 µM) | relative viability (AZD6482 + Tozasertib; first compound 2.53 µM) | relative viability (AZD6482 + Tozasertib; first compound 8 µM) | relative viability (AZD6482 + Olaparib; first compound 0.08 µM) | relative viability (AZD6482 + Olaparib; first compound 0.253 µM) | relative viability (AZD6482 + Olaparib; first compound 0.8 µM) | relative viability (AZD6482 + Olaparib; first compound 2.53 µM) | relative viability (AZD6482 + Olaparib; first compound 8 µM) | relative viability (AZD6482 + Alpelisib; first compound 0.08 µM) | relative viability (AZD6482 + Alpelisib; first compound 0.253 µM) | relative viability (AZD6482 + Alpelisib; first compound 0.8 µM) | relative viability (AZD6482 + Alpelisib; first compound 2.53 µM) | relative viability (AZD6482 + Alpelisib; first compound 8 µM) |
| --- | --- | --- | --- | --- | --- | --- | --- | --- | --- | --- | --- | --- | --- | --- | --- | --- | --- | --- | --- |
| LOU-NH91 | 0.803 | 0.812 | 0.731 | 0.693 | 0.551 | 0.66 | 0.605 | 0.546 | 0.496 | 0.851 | 0.917 | 0.898 | 0.595 | 0.755 | 0.547 | 0.676 | 0.647 | 0.525 | 0.639 |
| LU99A | 0.909 | 0.93 | 1.1 | 0.898 | 0.281 | 0.294 | 0.253 | 0.263 | 0.247 | 0.259 | 0.273 | 0.255 | 0.28 | 0.24 | 0.452 | 0.441 | 0.619 | 0.372 | 0.421 |
| NCI-H441 |  |  |  |  | 0.631 | 0.545 | 0.632 |  | 0.527 | 0.604 | 0.525 | 0.541 |  | 0.449 | 0.65 | 0.834 | 0.592 | 0.532 | 0.66 |
| NCI-H522 |  |  |  |  | 0.541 | 0.439 | 0.623 | 0.523 | 0.543 | 0.573 | 0.697 | 0.634 | 0.596 | 0.577 |  |  |  |  |  |
| NCI-H1299 | 0.965 | 0.933 | 0.972 | 0.862 |  |  |  |  |  | 0.995 | 1.02 | 1.07 | 0.992 | 0.934 | 1.14 | 1.17 | 1.27 | 1.04 | 1.28 |
| NCI-H1563 | 0.913 | 0.982 | 0.81 | 0.734 |  |  |  |  |  |  |  |  |  |  | 0.753 | 0.703 | 0.672 | 0.661 | 0.688 |
| NCI-H1623 |  |  |  |  | 0.384 | 0.382 | 0.397 | 0.419 | 0.371 |  |  |  |  |  |  |  |  |  |  |
| NCI-H1648 |  |  |  |  | 0.538 | 0.463 | 0.588 | 0.351 | 0.409 | 0.575 | 0.823 | 0.715 |  | 0.638 |  |  |  |  |  |
| NCI-H1650 | 0.75 | 0.813 | 0.915 | 0.579 | 0.36 | 0.378 | 0.303 | 0.336 | 0.393 | 0.652 | 0.761 | 0.643 | 0.736 | 0.813 |  |  |  |  |  |
| NCI-H1703 | 0.981 | 0.901 | 1.05 | 0.458 |  |  |  |  |  | 0.342 | 0.456 | 0.258 | 0.133 | 0.167 | 0.273 | 0.179 | 0.194 | 0.167 | 0.231 |
| NCI-H1792 | 0.953 | 0.893 | 0.94 | 1.02 |  |  |  |  |  | 0.151 | 0.345 | 0.365 | 0.234 | 0.138 | 0.516 | 0.518 | 0.67 | 0.393 | 0.359 |
| NCI-H2342 |  |  |  |  | 0.465 | 0.432 | 0.488 | 0.372 | 0.359 | 0.346 | 0.368 | 0.4 | 0.42 | 0.329 |  |  |  |  |  |
| SW 900 |  |  |  |  | 0.559 | 0.506 | 0.561 |  | 0.567 | 0.678 | 0.665 | 0.661 | 0.623 | 0.616 |  |  |  |  |  |
